The values that follow come from patent US9686982B2, “Treatment of potatoes and root vegetables during storage” (AMVAC CHEMICAL CORPORATION, priority 2013, dated 2017).

The structures appear in SMILES notation.

In one assay the test system is tubers (cv Alturas). The assay is described as follows: Tuber firmness measured with TA-XT-2 texture analyzer. It counts as in vivo, potato. The following applies: 115 ppm; for Tuber firmness (N) Average / Tuber firmness (N) Rep 1 / Tuber firmness (N) Rep 2 / Tuber firmness (N) Rep 3 / Tuber firmness (N) Rep 4: stored at 8° C.; for Tuber firmness (N) Rep 1 / Tuber firmness (N) Rep 2 / Tuber firmness (N) Rep 3 / Tuber firmness (N) Rep 4: mean of 6 tubers. As for the experimental part: The source of tubers for this study was Telford Farms in Paul, Id. The storage unit temperature set point was 48.5° F. (9° C.). The tuber pulp temperatures ranged from 49 to 53.6° F. (9 to 12° C.) depending upon their location in the pile. Untreated tubers (cv Alturas) were selected from storage on Jul. 2, 2013 (prior to SmartBlock® application) to serve as untreated controls. About 200 lbs (91 kg) of these were distributed into 4 coolers with cold packs and transported to the Fed Ex office in Twin Falls, Id. at 1:45 pm where they remained in the air conditioned office until 6:23 pm when they left the facility. Untreated tubers to arrived in Pullman at 11:45 am on July 3.
SmartBlock® was applied at a rate of 4.2 fluid oz ton^−1 (136 mL MT^−1) to tubers remaining in the Telford Farms storage on July 2. Ventilation was suspended for an estimated 12 to 18 hrs. post treatment. A shipment of the treated tubers was packed as described above and delivered to Fed Ex in Twin Falls for shipment on July 3. The shipment arrived in Pullman on July 5 at 11:30 am.
Tubers were sorted into weight categories immediately upon arrival in Pullman, working at room temperature (˜25° C.) and in dim light (0.16-1.34 μE sec^−1 m^−2). Two experimental groups were created from the untreated (control) tubers; those with one or more sprouts ≧0.5 cm and those with no significant (>2 mm) sprouts. Sorting of tubers and their assignment to treatment groups for the various experiments was accomplished within 1.5 hr. and subsequently all tubers were placed in dark, walk-in storage at 8° C. with 85 to 90% RH. Humidity was maintained through the use of a household room humidifier, water on the concrete floor, and damp burlap placed on the empty shelves.
Tubers for firmness measurements were sorted by treatment and blocked for size. Each treatment group (containing at least 24 tubers) was stored in a plastic tote in the walk-in cold room at 8° C. Damp burlap was placed atop the tote so as not to contact the tubers directly. Burlap was re-wetted every two days. At 6, 13, 20, and 27 days after treatment (DAT), six tubers from each rep of each treatment (3-decen-2-one-treated and non-treated not sprouted) were selected and gently rinsed under cold running water to remove surface soil. The tubers were placed in plastic tubs and covered with damp paper towels for transport to the testing facility.
A TA-XT-2 texture analyzer (Stable Microsystems) was used to test tubers for firmness. A section of peel was removed from the midsection on opposite sides of the tuber. An 8-mm probe was lowered into the tuber tissue within this peeled area to a distance of 5 mm at a speed of 1 mm s^−1. Firmness was recorded as the N (m kg s−1) required to achieve the specified penetration. The two readings per tuber were averaged. Analysis of variance was performed on the data set.

In another assay the test system is Potato variety FL 2053. As to the kind of experiment: Sprout control in commercial storage in Canada (Storage Bin 3). In kind it is in vivo. Particulars: 115 ppm hot fogging, sprouted diseased tubers, FIG. 4. As to the method:
(§1) One group of sprouted, diseased tubers (Storage Bin 3) were treated with 3-decen-2-one (as SmartBlock®) at the rate of 115 ppm using a hot fogging method. Another group of tubers was left untreated as a control.

In assay [1] the test system is dry rot (Fusarium sambucinum). As to the kind of experiment: Disease defects in commercial storage in Canada (Storage Bin 3). In kind it is in vivo. As for the experimental part: as §1
Setting [2] is: Dec. 10, 2013, final grading after 115 ppm thermal fog.

Turning to `CCCCCCC=CC(C)=O` [3-decen-2-one], in the assay on tubers (cv Alturas) (6 days after treatment), the “% Increase (tuber firmness vs untreated)” value was found to be 4.09%, the “Tuber firmness (N) Average” value came out at 75.38 N, the “Tuber firmness (N) Rep 1” value was found to be 67.84 N and the “Tuber firmness (N) Rep 2” value was found to be 79.18 N. Also, in the assay on tubers (cv Alturas) (6 days after treatment), the “Tuber firmness (N) Rep 3” value came out at 75.64 N and the “Tuber firmness (N) Rep 4” value amounted to 78.85 N. In the assay on tubers (cv Alturas) (13 days after treatment), the “% Increase (tuber firmness vs untreated)” value came out at 2.80%, the “Tuber firmness (N) Average” value was found to be 73.45 N, the “Tuber firmness (N) Rep 1” value is recorded as 73.22 N and the “Tuber firmness (N) Rep 2” value is reported as 67.34 N. Moreover, in the assay with tubers (cv Alturas) (13 days after treatment), the “Tuber firmness (N) Rep 3” value turned out to be 73.98 N and the “Tuber firmness (N) Rep 4” value is reported as 79.26 N. In the assay with tubers (cv Alturas) (20 days after treatment), the “% Increase (tuber firmness vs untreated)” value is listed as 3.28%, the “Tuber firmness (N) Average” value was found to be 74.90 N, the “Tuber firmness (N) Rep 1” value is reported as 74.51 N and the “Tuber firmness (N) Rep 2” value is 74.63 N. For the same compound, in the assay with tubers (cv Alturas) (20 days after treatment), the “Tuber firmness (N) Rep 3” value came to 72.81 N and the “Tuber firmness (N) Rep 4” value is reported as 77.64 N. Also, the “sprouting compared to untreated controls” value in the assay on Potato variety FL 2053 is given as “reduced/prevented sprouting”. Besides, the “symptoms of dry rot compared to untreated controls” value in assay [1] (115 ppm hot fogging, sprouted diseased tubers, FIG. 4) is reported as “decreased or eliminated symptoms of dry rot”. Besides, the “% Total Defects” value in assay [1] (Dec. 10, 2013, bin unloaded after 115 ppm thermal fog on Nov. 13, 2013 (14.30 before treatment), variety FL 2053) was found to be 4.23%. In assay [1] (setting [2]), the moistness of tubers result is “tubers were not moist and mold”; the mold development entry is on record as “development had been arrested”. For the same compound, the “Change (of % total defects)” value in assay [1] (Dec. 10, 2013 versus Nov. 13, 2013 before treatment, 115 ppm thermal fog) is listed as -70.4.
